Experimental findings from EPA's ToxValDB 9.5 are described below.

Structures are written as SMILES. Converted amounts (≈) assume the structure as drawn.

One series relates to Apis mellifera. The conditions noted are these: acute, dermal, mortality.
In a further series the test system is Daphnia magna. Conditions: chronic/long-term; duration: 21 days; reproduction.
A further series has as its system Gasterosteus aculeatus. Conditions: acute; duration: 96 hours; mortality.
A further series relates to Oncorhynchus mykiss. Conditions: chronic/long-term.
Another series concerns Rattus norvegicus. Conditions: for LD50: mortality.
The next series deals with Tagia sp. The conditions noted are these: for LC50: acute, duration: 14 days.
The subject of the next series is Aphidius rhopalosiphi. As to the kind of experiment: LR50; higher = less toxic. Conditions: acute; duration: 48 hours; mortality.
Series [1] deals with Vigna radiata var. radiata. The conditions noted are these: not reported; other.
In the next series the test system is Bird. Conditions: acute; oral; unspecified; mortality.
The next series concerns Canidae. Conditions: chronic, Dog Other.
The next series deals with Colinus virginianus. Conditions: for LD50: acute, oral, mortality.
The next series concerns Coturnix coturnix. The conditions noted are these: acute; oral; mortality.
Another series relates to Mus musculus. Conditions: acute; oral; F; mortality.
The test system of a further series is Macaca mulatta. Conditions: chronic; duration: 183 days; oral; capsule; M/F; clinical chemistry.
The subject of another series is Danio rerio. The conditions noted are these: short-term; duration: 168 hours; growth.
In another series the test system is Pimephales promelas. The conditions noted are these: chronic/long-term; duration: 255 days; growth.
The next series relates to Aphidius colemani. As to the kind of experiment: LR50; higher = less toxic. Conditions: not reported; mortality.
The test system of another series is Ovis sp. The conditions noted are these: subchronic, oral, diet.
For the next series, the system named is Leuciscus idus. The conditions noted are these: acute; duration: 96 hours; mortality.
Another series concerns Bibionidae. The conditions noted are these: chronic/long-term.
Another series relates to Typhlodromus pyri. Briefly: LR50; higher = less toxic. The conditions noted are these: not reported; mortality.
The test system of a further series is Bovidae. The conditions noted are these: subchronic; duration: 90 days; neurology.
The test system of another series is Felidae. Conditions: chronic; duration: 420 days; oral; diet; M/F; Cat; neurology.
The subject of another series is Gallus gallus. The conditions noted are these: reproduction developmental; duration: 50 days; F; reproduction.
For the next series, the system named is Neovison vison. The conditions noted are these: chronic; duration: 93 days; oral; diet; neurology.
For another series, the system named is Sus scrofa. Conditions: subchronic; duration: 60 days; oral; diet; Not specified; histopathology: nonneoplastic.
[2] abbreviates: reproduction developmental, no effects.

In general, NOAEL refers to the highest tested level that showed no adverse finding. `CCOC(=O)CC(SP(=S)(OC)OC)C(=O)OCC` (stereo not drawn) [Malathion]: the LD50 with Apis mellifera (duration: 48 hours) was found to be 0.16 µg/piece. In addition, the NOEC in the series with Daphnia magna worked out at 6e-05 mg/L; with Oncorhynchus mykiss (duration: 97 days, morphology), 0.021 mg/L. The LC50 in the series with Gasterosteus aculeatus came out at 0.022 µg/mL (≈ 0.0666 µM); in the series with Tagia sp. (mortality) it was 613 mg/kg. Besides, the NOAEL was 29 mg/kg-day in the series with Rattus norvegicus (chronic, duration: 2 years, neurology) and 34 mg/kg-day in the series with Rattus norvegicus (subchronic, duration: 90 days, neurology). In addition, the LR50 in the series with Aphidius rhopalosiphi turned out to be 0.0612 g/ha.

Take `Cc1cc(C)[nH]c(=O)n1` [4,6-Dimethylpyrimidin-2-ol]: in the series on Tagia sp. (no effects), the LC50 was above 1000 mg/kg. The NOEC in [1] was determined as 2.63 mg/kg.

In turn, `CCOP(=S)(OCC)Oc1nc(Cl)c(Cl)cc1Cl` [Chlorpyrifos] registered an NOEC with Anas platyrhynchos (reproductive, reproduction) of 2.88 mg/kg-day. In addition, the LC50 in the series with Anas platyrhynchos (short-term, oral, feed, mortality) worked out at 71 mg/kg-day. Also, the LD50 is 122 mg/kg in the series on Bird, 75 mg/kg in the series with Colinus virginianus (duration: 1 hours), 13.3 mg/kg in the series on Coturnix coturnix and 64 mg/kg with Mus musculus. Besides, the NOAEL in the series with Canidae (duration: 2 years, clinical chemistry) turned out to be 0.1 mg/kg-day; with Rattus norvegicus (acute, clinical chemistry), 0.5 mg/kg-day; with Rattus norvegicus (chronic, duration: 2 years, clinical chemistry), 0.1 mg/kg-day; in the series on Rattus norvegicus (reproduction developmental) it was 1 mg/kg-day; in the series with Rattus norvegicus (reproduction developmental, clinical chemistry), 0.1 mg/kg-day.

Take `O=S(=O)(O)C(F)(F)C(F)(F)C(F)(F)C(F)(F)C(F)(F)C(F)(F)C(F)(F)C(F)(F)F` [Perfluorooctanesulfonic acid]: in the series on Macaca mulatta, the NOAEL came to 0.03 mg/kg-day.

As to `O=C(O)CNCP(=O)(O)O` [Glyphosate], the NOEL stood at 125 mg/kg-day in the series on Anas platyrhynchos (reproductive) and 96.3 mg/kg-day in the series with Colinus virginianus (reproduction developmental). In addition, the LD50 is 4330 mg/kg-day with Colinus virginianus and above 2000 mg/kg-day with Rattus norvegicus (acute, oral). For the same compound, the NOEC in the series with Danio rerio amounted to 1 mg/L; in the series on Daphnia magna it was 12.5 mg/L; in the series with Pimephales promelas, 25.7 mg/L. In the series with Oryctolagus sp. (chronic), this compound showed an NOAEL of 50 mg/kg-day.

In the case of `C=C1C[C@]23C[C@@]1(O)CC[C@H]2[C@@]12C=C[C@H](O)[C@@](C)(C(=O)O1)[C@H]2[C@@H]3C(=O)O` [Gibberellic acid], the LD50 in the series with Anas platyrhynchos (acute, oral, unspecified, mortality) was above 2000 mg/kg; with Apis mellifera it was above 25 µg/piece; in the series with Colinus virginianus (diet) it was above 904 mg/kg-day; with Rattus norvegicus (acute, oral) it was above 5000 mg/kg. The NOEL with Oryctolagus sp. (setting [2]) and in the series on Rattus norvegicus (setting [2]) was 1000 mg/kg-day throughout. Moreover, the NOAEL with Rattus norvegicus (subchronic, duration: 90 days, oral, organ weight) was determined as 680 mg/kg-day. Further, in the series on Aphidius colemani, the LR50 is above 10 g/ha.

Compound `COc1cc2c(c3oc4cccc(O)c4c(=O)c13)[C@@H]1C=CO[C@@H]1O2` [Sterigmatocystin] came in with an LEL in the series on Ovis sp. (duration: 8 weeks, no effects) of 0.3 mg/kg-day.

For the compound `CN(C)C.Cl` [Trimethylamine hydrochloride], the LC50 with Leuciscus idus was above 500 µg/mL. For the same compound, the NOAEL with Rattus norvegicus (subchronic, duration: 90 days) stood at 144 mg/kg-day.

`Nc1c(Cl)cc([N+](=O)[O-])cc1Cl` [1-Amino-2,6-dichloro-4-nitrobenzene]: the NOEC was determined as 0.6 mg/L with Bibionidae; 35.2 mg/kg-day in the series with Colinus virginianus (reproduction developmental); 0.032 mg/L in the series with Daphnia magna; 0.05 mg/L in the series on Oncorhynchus mykiss (duration: 28 days, growth); 77.8 mg/kg in the series on Tagia sp. (chronic/long-term, duration: 56 days). In the series on Canidae (duration: 1 years, oral, hematological), the NOAEL came to 2.5 mg/kg-day. In addition, in the series on Rattus norvegicus (reproduction developmental, body weight), the NOEL worked out at 19 mg/kg-day. Further, the LR50 with Typhlodromus pyri is 374 g/ha.

What is called LOAEL is the lowest tested level that showed an adverse finding. As to `[CH3][Hg+]` [Methyl mercury(II) cation], the lowest observed adverse effect level (LOAEL) with Anas platyrhynchos (reproductive, development) was found to be 5 mg/kg; in the series on Canidae (duration: 385 days, oral, neurology), 0.12 mg/kg-day; in the series on Neovison vison it was 0.18 mg/kg-day; in the series with Ovis sp. (duration: 59 days, neurology), 0.225 mg/kg-day. Moreover, the NOAEL in the series with Bovidae was determined as 0.1 mg/kg-day; in the series on Felidae, 0.02 mg/kg-day; in the series with Gallus gallus it was 0.75 mg/kg-day; in the series on Oncorhynchus mykiss (duration: 112 days, oral, feed, hematological) it was 0.17 mg/kg-day; in the series on Sus scrofa it was 0.19 mg/kg-day.
